What is called inhibition is the change of the read-out against control, counted positive when it falls.

Here are results for ten compounds from US20140155384A1, “COMPOUNDS AND METHODS OF TREATING DIABETES” (Medivation Technologies, Inc., priority 2011, published 2014).

Assay [1] deals with T1, human recombinant adrenergic α1D receptor (Homo sapiens, UniProt P25100).
T1 construct: expressed in transfected cells; host or cells: HEK-293
T1 sequence (P25100 1-572): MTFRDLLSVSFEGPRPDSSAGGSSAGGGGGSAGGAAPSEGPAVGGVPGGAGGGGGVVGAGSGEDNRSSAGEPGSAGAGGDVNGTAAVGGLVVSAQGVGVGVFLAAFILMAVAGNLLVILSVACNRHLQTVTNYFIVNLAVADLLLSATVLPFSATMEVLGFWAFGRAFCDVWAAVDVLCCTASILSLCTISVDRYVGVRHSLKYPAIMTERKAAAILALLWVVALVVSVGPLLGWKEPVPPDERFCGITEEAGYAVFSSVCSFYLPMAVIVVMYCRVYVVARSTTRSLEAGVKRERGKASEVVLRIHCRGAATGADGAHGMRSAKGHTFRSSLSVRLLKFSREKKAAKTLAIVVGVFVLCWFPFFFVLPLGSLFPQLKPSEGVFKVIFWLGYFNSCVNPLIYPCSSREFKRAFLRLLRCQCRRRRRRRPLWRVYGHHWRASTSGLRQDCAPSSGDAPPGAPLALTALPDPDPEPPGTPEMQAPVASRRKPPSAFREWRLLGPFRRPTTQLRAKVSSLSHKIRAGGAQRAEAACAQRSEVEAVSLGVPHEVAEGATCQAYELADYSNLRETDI
The assay can be described thus: Radioligand binding, adrenergic α1D receptor ([3H]Prazosin). Conditions: 0.1 μM compound; HEK-293 cells; 0.6 nM [3H]Prazosin; read-out: Percentage inhibition of ligand binding, Adrenergic α1D. As to the method: Compounds were incubated with 0.6 nM [3H]Prazosin for 60 min at 25° C. Non-specific binding was estimated in the presence of 10 μM phentolamine. Receptor proteins were filtered and washed, the filters were then counted to determine [3H]Prazosin specifically bound. Compounds were screened at 1 μM or lower, using 1% DMSO as vehicle. Biochemical assay results are presented as the percent inhibition of specific binding in Table 2.

The target of assay [2] is T2, rat adrenergic α1B receptor (Rattus norvegicus, UniProt P15823).
T2 construct: rat adrenergic α1B receptor obtained from Wistar Rat liver; from tissue; host or cells: Wistar rat liver
T2 sequence (P15823 1-515): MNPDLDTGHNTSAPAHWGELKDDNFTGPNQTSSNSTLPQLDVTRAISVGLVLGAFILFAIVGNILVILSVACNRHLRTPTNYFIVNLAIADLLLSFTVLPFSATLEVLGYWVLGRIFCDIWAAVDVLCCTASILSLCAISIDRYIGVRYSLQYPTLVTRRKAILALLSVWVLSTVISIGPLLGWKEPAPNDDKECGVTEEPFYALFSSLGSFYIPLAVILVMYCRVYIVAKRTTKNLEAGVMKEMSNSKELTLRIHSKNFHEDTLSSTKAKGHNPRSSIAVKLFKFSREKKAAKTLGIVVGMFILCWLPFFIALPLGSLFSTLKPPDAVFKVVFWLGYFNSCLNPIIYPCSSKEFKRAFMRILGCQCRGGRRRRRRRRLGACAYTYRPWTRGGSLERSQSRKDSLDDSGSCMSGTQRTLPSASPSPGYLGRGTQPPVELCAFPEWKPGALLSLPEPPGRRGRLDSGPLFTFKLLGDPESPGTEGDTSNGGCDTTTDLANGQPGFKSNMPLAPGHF
The assay can be described thus: Radioligand binding, adrenergic α1B receptor ([3H]Prazosin). As to conditions: 0.1 μM compound, Wistar rat liver, read-out: Percentage inhibition of ligand binding, Adrenergic α1B. The procedure:
To evaluate in radioligand binding assays the activity of compounds, rat adrenergic α1B receptor obtained from Wistar Rat liver (Garcia-S' ainz, J. et al, Biochem. Biophys. Res. Commun. 186:760, 1992; Michel, A. et al, Br. J. Pharmacol. 98:883, 1989) in a modified Tris-HCl buffer (50 mM Tris-HCl buffer, pH 7.4, 0.5 mM EDTA) was used. Compounds were incubated with 0.25 nM [^3H]Prazosin for 60 min at […]. Non-specific binding was estimated in the presence of 10 μM phentolamine. Receptor proteins were filtered and washed, the filters were then counted to determine [^3H]Prazosin specifically bound. Compounds were screened at 1 μM or lower, using 1% DMSO as vehicle. Compounds were tested in this biochemical assay and percent inhibition of specific binding was determined. Biochemical assay results are presented as the percent inhibition of specific binding in Table 2.

The target of assay [3] is T3, human recombinant adrenergic α2A receptor (Homo sapiens, UniProt P08913).
T3 construct: expressed in transfected cells; host or cells: insect Sf9 cells
T3 sequence (P08913 1-465): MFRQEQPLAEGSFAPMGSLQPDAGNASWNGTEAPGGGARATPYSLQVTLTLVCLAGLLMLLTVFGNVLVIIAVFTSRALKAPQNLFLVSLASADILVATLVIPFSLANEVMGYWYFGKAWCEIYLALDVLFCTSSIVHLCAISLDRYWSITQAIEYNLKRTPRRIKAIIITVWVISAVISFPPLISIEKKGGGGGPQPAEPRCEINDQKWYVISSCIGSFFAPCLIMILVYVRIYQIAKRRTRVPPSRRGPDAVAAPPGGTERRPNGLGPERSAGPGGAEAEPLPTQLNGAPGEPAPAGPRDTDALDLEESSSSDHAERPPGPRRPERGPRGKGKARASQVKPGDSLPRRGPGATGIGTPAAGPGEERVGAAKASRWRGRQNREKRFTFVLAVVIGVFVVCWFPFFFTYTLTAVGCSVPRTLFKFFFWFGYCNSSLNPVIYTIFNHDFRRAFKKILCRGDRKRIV
As to the kind of experiment: Radioligand binding, adrenergic α2A receptor ([3H]MK-912). Conditions: 0.1 μM compound; Sf9 cells; 1 nM [3H]MK-912; read-out: Percentage inhibition of ligand binding, Adrenergic α2A. As to the method: To evaluate in radioligand binding assays the activity of compounds, human recombinant adrenergic α2A receptor expressed in insect Sf9 cells (Uhlen, S. et al, J. Pharmacol. Exp. Ther. 271:1558, 1994) in a modified Tris-HCl buffer (50 mM Tris-HCl, pH 7.4, 12.5 mM MgCl2, 2 mM EDTA) was used. Compounds were incubated with 1 nM [^3H]MK-912 for 60 min at 25° C. MK912 is (2S-trans)-1,3,4,5′,6,6′,7,12b-octahydro-1′,3′-dimethyl-spiro[2H-benzofuro[2,3-a]quinolizine-2,4′(1′H)-pyrimidin]-2′(3′H)-one hydrochloride Non-specific binding was estimated in the presence of 10 μM WB-4101 (2-(2,6-Dimethoxyphenoxyethyl)aminoethyl-1,4-benzodioxane hydrochloride). Receptor proteins were filtered and washed, the filters were then counted to determine [^3H]MK-912 specifically bound. Compounds were screened at 1 μM or lower, using 1% DMSO as vehicle. Compounds were tested in this biochemical assay and percent inhibition of specific binding was determined. Biochemical assay results are presented as the percent inhibition of specific binding in Table 2.

Assay [4] concerns the target T4, human recombinant adrenergic α2B receptor (Homo sapiens, UniProt P18089).
T4 construct: expressed in transfected cells; host or cells: CHO-K1
T4 sequence (P18089 1-450): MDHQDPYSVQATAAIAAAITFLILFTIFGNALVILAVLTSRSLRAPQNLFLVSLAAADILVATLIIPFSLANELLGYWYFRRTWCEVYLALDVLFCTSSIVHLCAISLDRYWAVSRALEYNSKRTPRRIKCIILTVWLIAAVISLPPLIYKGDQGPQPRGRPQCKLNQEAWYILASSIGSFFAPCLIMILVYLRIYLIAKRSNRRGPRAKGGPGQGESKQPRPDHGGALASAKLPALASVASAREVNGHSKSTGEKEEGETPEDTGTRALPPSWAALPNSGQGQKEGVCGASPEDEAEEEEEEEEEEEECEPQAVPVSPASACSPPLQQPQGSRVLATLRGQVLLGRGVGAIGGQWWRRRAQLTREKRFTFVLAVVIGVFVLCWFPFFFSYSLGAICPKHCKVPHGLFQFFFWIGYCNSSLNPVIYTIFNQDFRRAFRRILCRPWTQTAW
As to the kind of experiment: Radioligand binding, adrenergic α2B receptor ([3H]Rauwolscine). As to conditions: 0.1 μM compound, CHO-K1 cells, read-out: Percentage inhibition of ligand binding, Adrenergic α2B. The procedure: To evaluate in radioligand binding assays the activity of compounds, human recombinant adrenergic α2B receptor expressed in Chinese hamster ovary (CHO) K1 cells (Uhlen, S. et al, Eur. J. Pharmacol. 343(1):93, 1998) in a modified Tris-HCl buffer (50 mM Tris-HCl, pH 7.4, 12.5 mM MgCl2, 1 mM EDTA, 0.2% BSA) was used. Compounds were incubated with 2.5 nM [^3H]Rauwolscine for 60 min at 25° C. Non-specific binding was estimated in the presence of 10 μM Prazosin. Receptor proteins were filtered and washed, the filters were then counted to determine [^3H]Rauwolscine specifically bound. Compounds were screened at 1 μM or lower, using 1% DMSO as vehicle. Compounds were tested in this biochemical assay and percent inhibition of specific binding was determined. Biochemical assay results are presented as the percent inhibition of specific binding in Table 2.

`Cc1ccc2c(c1)c1c(n2-c2cccc(-c3ccc(S(N)(=O)=O)cc3)c2)CCN(C)C1` [Compound No. 158, 3′-(2,8-dimethyl-3,4-dihydro-1H-pyrido[4,3-b]indol-5(2H)-yl)biphenyl-4-sulfonamide]: the inhibition at 0.1 µM in assay [1] worked out at 14%; in assay [2], 7%; in assay [3] it was 73%; in assay [4] it was 60%.
In the case of `Cc1ccc2c(c1)c1c(n2-c2ccccc2-c2cncc3ccccc23)CCN(C)C1` [Compound No. 87, 5-(2-(isoquinolin-4-yl)phenyl)-2,8-dimethyl-2,3,4,5-tetrahydro-1H-pyrido[4,3-b]indole], the inhibition at 0.1 µM in assay [1] is 16%; in assay [2], 13%; in assay [3] it was 30%; in assay [4], 18%.
With `CNC(=O)c1ccc(-c2cccc(-n3c4c(c5cc(C)ccc53)CN(C)CC4)c2)cn1` [Compound No. 75, 5-(3-(2,8-dimethyl-3,4-dihydro-1H-pyrido[4,3-b]indol-5(2H)-yl)phenyl)-N-methylpicolinamide], the inhibition at 0.1 µM in assay [1] stood at 15%; in assay [2], 20%; in assay [3] it was 21%; in assay [4], 16%.
As to `CNC(=O)c1ccc(-c2ccccc2-n2c3c(c4cc(C)ccc42)CN(C)CC3)cc1` [Compound No. 72, 2′-(2,8-dimethyl-3,4-dihydro-1H-pyrido[4,3-b]indol-5(2H)-yl)-N-methylbiphenyl-4-carboxamide], the inhibition at 0.1 µM was determined as 56% in assay [1], 28% in assay [2], 3% in assay [3] and 17% in assay [4].
As for `Cc1ccc2c(c1)c1c(n2-c2ccccc2-c2ccc(C)nc2)CCN(C)C1` [Compound 59, 2,8-dimethyl-5-(2-(6-methylpyridin-3-yl)phenyl)-2,3,4,5-tetrahydro-1H-pyrido[4,3-b]indole], the inhibition at 0.1 µM was 65% in assay [1], 47% in assay [2], 77% in assay [3] and 91% in assay [4].
On the same counts, the results for `Cc1ccc2c(c1)c1c(n2-c2ccc(-c3cccc4[nH]ncc34)cn2)CCN(C)C1` [Compound No. 147, 5-(5-(1H-indazol-4-yl)pyridin-2-yl)-2,8-dimethyl-2,3,4,5-tetrahydro-1H-pyrido[4,3-b]indole] are 61%, 72%, 46% and 43%.
For the compound `Cc1ccc2c(c1)c1c(n2-c2ccc(-c3ccc4c(ccn4C)c3)cn2)CCN(C)C1` [Compound No. 136, 2,8-dimethyl-5-(5-(1-methyl-1H-indol-5-yl)pyridin-2-yl)-2,3,4,5-tetrahydro-1H-pyrido[4,3-b]indole], the inhibition at 0.1 µM was found to be 59% in assay [1], 70% in assay [2], 59% in assay [3] and 105% in assay [4].
In the case of `Cc1ccc2c(c1)c1c(n2-c2ccccc2-c2cnc(N(C)C)nc2)CCN(C)C1` [Compound 31], the inhibition at 0.1 µM in assay [1] is 80%; in assay [2], 36%; in assay [3], 74%; in assay [4] it was 67%.
As to `Cc1ccc2c(c1)c1c(n2-c2cscc2-c2ccc(O)nc2)CCN(C)C1` [Compound 49], the inhibition at 0.1 µM was 14% in assay [1], 12% in assay [2], -3% in assay [3] and 31% in assay [4].
With `Cc1ccc2c(c1)c1c(n2-c2cccs2)CCN(C)C1` [Compound 16, 2,8-dimethyl-5-thiophen-2-yl-2,3,4,5-tetrahydro-1H-pyrido[4,3-b]indole], the inhibition at 0.1 µM in assay [1] is 16%; in assay [2], 8%; in assay [3] it was -1%; in assay [4] it was 16%.
